Results as given in patent publication US20240285634A1, “COMPOUND AND METHOD FOR TREATING CHEMOTHERAPY-ASSOCIATED GASTROINTESTINAL SIDE EFFECTS” (ONQUALITY PHARMACEUTICALS CHINA LTD., priority 2021, published 2024).

Tests used:
[1] = system: Balb/c mice, constipation caused by continuous administration of a chemotherapeutic agent; experiment: Relieving effect on constipation caused by the continuous administration of a chemotherapeutic agent (Examples 385-405); format: in vivo
Summary of the method: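 Balb/c mice (10/group) received vehicle or Formula I compound by injection or gavage, then a chemotherapeutic agent; dose, route, timing and agent are per group. Feces output over 3 h was recorded daily. Feces reduction rate (%) = (control − treated)/control × 100.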

[2] = system: Chemotherapeutic agent-caused diarrhea models of Balb/c mice; experiment: Relieving effect on diarrhea caused by a chemotherapeutic agent (Examples 1-201); format: in vivo
Summary of the method: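 Balb/c mice (10/group) given Formula I compound by injection or gavage, then a chemotherapeutic agent to induce diarrhea, with solvent and chemotherapy-only controls. Diarrhea graded 0–3 daily; relative remission rate = % of treated mice graded below the chemotherapy-group average.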

CC(C)N1CCN(c2ccc(Nc3ncc4cc5n(c4n3)C3(CCCCC3)CNC5=O)nc2)CC1 [Compound IV, Lerociclib]
Relative remission rate (%) ([1]; Example 399, Fluorouracil (5-Fu) 100 mg/kg intraperitoneal injection once a day for 3 days, compound 100 mg/kg oral administration once a day for 3 days, 4 h before the chemotherapeutic agent, experimental cycle 7 days): 50%
relieving effects on constipation ([1]; continuous administration of fluorouracil for less than 7 days): significant relieving effects
relieving effects on constipation ([1]; continuous administration of the chemotherapeutic agent for 7 days or less): have relieving effects
Relative remission rate ([2]; Ex 112, Irinotecan (CPT-11) 240 mg/kg intraperitoneal single, compound 100 mg/kg intraperitoneal single 0.5 h before, cycle 11 days): 60%
Relative remission rate ([2]; Ex 113, Irinotecan (CPT-11) 240 mg/kg intraperitoneal single, compound 100 mg/kg intraperitoneal single 4 h before, cycle 11 days): 50%
Relative remission rate ([2]; Ex 114, Irinotecan (CPT-11) 240 mg/kg intraperitoneal single, compound 100 mg/kg intraperitoneal single 8 h before, cycle 11 days): 30%
Relative remission rate ([2]; Ex 135, Fluorouracil 100 + irinotecan 200 mg/kg intraperitoneal single, compound 100 mg/kg oral single 0.5 h before, cycle 8 days): 30%
Relative remission rate ([2]; Ex 136, Fluorouracil 100 + irinotecan 200 mg/kg intraperitoneal single, compound 100 mg/kg oral single 12 h before, cycle 8 days): 50%
Relative remission rate ([2]; Ex 137, Fluorouracil 100 + irinotecan 200 mg/kg intraperitoneal single, compound 100 mg/kg oral single 24 h before, cycle 8 days): 40%
Relative remission rate ([2]; Ex 183, Fluorouracil 50 + oxaliplatin 5 + irinotecan 50 + tetrahydrofolic acid 90 mg/kg intravenous single, compound 100 mg/kg intraperitoneal single 0.5 h before, cycle 7 days): 80%
Relative remission rate ([2]; Ex 184, Fluorouracil 50 + oxaliplatin 5 + irinotecan 50 + tetrahydrofolic acid 90 mg/kg intravenous single, compound 100 mg/kg intraperitoneal single 4 h before, cycle 7 days): 60%
Relative remission rate ([2]; Ex 185, Fluorouracil 50 + oxaliplatin 5 + irinotecan 50 + tetrahydrofolic acid 90 mg/kg intravenous single, compound 100 mg/kg intraperitoneal single 8 h before, cycle 7 days): 50%
Relative remission rate ([2]; Ex 186, Fluorouracil 50 + oxaliplatin 5 + irinotecan 50 + tetrahydrofolic acid 90 mg/kg intravenous single, compound 100 mg/kg intraperitoneal single 12 h before, cycle 7 days): 50%
Relative remission rate ([2]; Ex 187, Fluorouracil 50 + oxaliplatin 5 + irinotecan 50 + tetrahydrofolic acid 90 mg/kg intravenous single, compound 100 mg/kg intraperitoneal single 24 h before, cycle 7 days): 40%
Relative remission rate ([2]; Ex 195, Topotecan 20 mg/kg intravenous single, compound 100 mg/kg oral single 0.5 h before, cycle 14 days): 60%
diarrhea gradings compared with the chemotherapeutic agent group ([2]; administered before the chemotherapeutic agent, Table 3 and FIG. 2): relieved to different degrees
